Test results from the supplement of paper PMC10307832.

Columns and labels:
Assay in all cases: relative viability (nuclei count vs DMSO), 5 days (fraction); higher = more cells survive
[1] = tested on: BEN
How it was run: (§1)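 Each reported value is a median over duplicate plates. It expresses relative viability: treated-well nuclei count divided by vehicle-well nuclei count. Lung cancer cell lines in 1536-well plates were dosed by pin tool a day after seeding, alone with one drug or with a fixed anchor-drug dose plus five library-drug doses (not always all listed) in √10 steps, and nuclei were counted after 5 days.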

[2] = tested on: CAL-12T
How it was run: as §1

[3] = tested on: COR-L23
How it was run: as §1

[4] = tested on: HCC-366
How it was run: as §1

[5] = tested on: LOU-NH91
How it was run: as §1

[6] = tested on: LU99A
How it was run: as §1

[7] = tested on: NCI-H1355
How it was run: as §1

[8] = tested on: NCI-H1437
How it was run: as §1

[9] = tested on: NCI-H1650
How it was run: as §1

[10] = tested on: NCI-H1651
How it was run: as §1

[11] = tested on: NCI-H1734
How it was run: as §1

[12] = tested on: NCI-H1793
How it was run: as §1

[13] = tested on: NCI-H1975
How it was run: as §1

[14] = tested on: NCI-H2023
How it was run: as §1

[15] = tested on: NCI-H2085
How it was run: as §1

[16] = tested on: NCI-H2342
How it was run: as §1

[17] = tested on: NCI-H358
How it was run: as §1

[18] = tested on: NCI-H441
How it was run: as §1

[19] = tested on: NCI-H460
How it was run: as §1

[20] = tested on: NCI-H838
How it was run: as §1

[21] = tested on: SK-LU-1
How it was run: as §1

CCN(CC)CCCCNc1ncc2cc(-c3cc(OC)cc(OC)c3)c(NC(=O)NC(C)(C)C)nc2n1 + CC(=O)Nc1cccc(-n2c(=O)n(C3CC3)c(=O)c3c(Nc4ccc(I)cc4F)n(C)c(=O)c(C)c32)c1 [Trametinib] (partner 0.02 µM) was tested, and the relative viability ([1]; first compound 0.01 µM) was 1.15, the relative viability ([1]; first compound 0.03162 µM) was 0.797 and the relative viability ([1]; first compound 0.1 µM) was 0.978. The relative viability ([1]; first compound 0.3162 µM) was 1.09, the relative viability ([1]; first compound 1 µM) was 0.888 and the relative viability ([2]; first compound 0.01 µM) was 0.3. The relative viability ([2]; first compound 0.03162 µM) was 0.338, the relative viability ([2]; first compound 0.1 µM) was 0.372 and the relative viability ([2]; first compound 0.3162 µM) was 0.261. For the same compound, the relative viability ([2]; first compound 1 µM) was 0.333, the relative viability ([3]; first compound 0.01 µM) was 0.579 and the relative viability ([3]; first compound 0.03162 µM) was 0.593. It also gave a relative viability ([3]; first compound 0.1 µM) of 0.667, a relative viability ([3]; first compound 0.3162 µM) of 0.692 and a relative viability ([3]; first compound 1 µM) of 0.61. For the same compound, the relative viability ([4]; first compound 0.01 µM) was 0.352, the relative viability ([4]; first compound 0.03162 µM) was 0.386 and the relative viability ([4]; first compound 0.1 µM) was 0.437. It also gave a relative viability ([4]; first compound 0.3162 µM) of 0.358, a relative viability ([4]; first compound 1 µM) of 0.309 and a relative viability ([5]; first compound 0.01 µM) of 0.758. For the same compound, the relative viability ([5]; first compound 0.03162 µM) was 0.771, the relative viability ([5]; first compound 0.1 µM) was 0.829 and the relative viability ([5]; first compound 0.3162 µM) was 0.844. For the same compound, the relative viability ([5]; first compound 1 µM) was 0.766, the relative viability ([6]; first compound 0.01 µM) was 0.593 and the relative viability ([6]; first compound 0.03162 µM) was 0.537. It also gave a relative viability ([6]; first compound 0.1 µM) of 0.527, a relative viability ([6]; first compound 0.3162 µM) of 0.6 and a relative viability ([6]; first compound 1 µM) of 0.505. For the same compound, the relative viability ([7]; first compound 0.01 µM) was 0.462, the relative viability ([7]; first compound 0.03162 µM) was 0.436 and the relative viability ([7]; first compound 0.1 µM) was 0.479. It also gave a relative viability ([7]; first compound 0.3162 µM) of 0.502, a relative viability ([7]; first compound 1 µM) of 0.382 and a relative viability ([8]; first compound 0.01 µM) of 0.564. It also gave a relative viability ([8]; first compound 0.03162 µM) of 0.529, a relative viability ([8]; first compound 0.1 µM) of 0.622 and a relative viability ([8]; first compound 0.3162 µM) of 0.521. For the same compound, the relative viability ([8]; first compound 1 µM) was 0.495, the relative viability ([9]; first compound 0.01 µM) was 0.695 and the relative viability ([9]; first compound 0.03162 µM) was 0.564. For the same compound, the relative viability ([9]; first compound 0.1 µM) was 0.783, the relative viability ([9]; first compound 0.3162 µM) was 0.598 and the relative viability ([9]; first compound 1 µM) was 0.457. For the same compound, the relative viability ([10]; first compound 0.01 µM) was 0.863, the relative viability ([10]; first compound 0.03162 µM) was 0.802 and the relative viability ([10]; first compound 0.1 µM) was 0.842. For the same compound, the relative viability ([10]; first compound 0.3162 µM) was 0.836, the relative viability ([10]; first compound 1 µM) was 0.806 and the relative viability ([11]; first compound 0.01 µM) was 0.665. For the same compound, the relative viability ([11]; first compound 0.03162 µM) was 0.678, the relative viability ([11]; first compound 0.1 µM) was 0.627 and the relative viability ([11]; first compound 0.3162 µM) was 0.581. It also gave a relative viability ([11]; first compound 1 µM) of 0.407, a relative viability ([12]; first compound 0.01 µM) of 0.456 and a relative viability ([12]; first compound 0.03162 µM) of 0.405. It also gave a relative viability ([12]; first compound 0.1 µM) of 0.422, a relative viability ([12]; first compound 0.3162 µM) of 0.337 and a relative viability ([12]; first compound 1 µM) of 0.238. The relative viability ([13]; first compound 0.01 µM) was 0.328, the relative viability ([13]; first compound 0.03162 µM) was 0.314 and the relative viability ([13]; first compound 0.1 µM) was 0.345. It also gave a relative viability ([13]; first compound 0.3162 µM) of 0.405, a relative viability ([13]; first compound 1 µM) of 0.348 and a relative viability ([14]; first compound 0.01 µM) of 0.662. For the same compound, the relative viability ([14]; first compound 0.03162 µM) was 0.551, the relative viability ([14]; first compound 0.1 µM) was 0.624 and the relative viability ([14]; first compound 0.3162 µM) was 0.629. The relative viability ([14]; first compound 1 µM) was 0.447, the relative viability ([15]; first compound 0.01 µM) was 0.521 and the relative viability ([15]; first compound 0.03162 µM) was 0.682. For the same compound, the relative viability ([15]; first compound 0.1 µM) was 0.496, the relative viability ([15]; first compound 0.3162 µM) was 0.469 and the relative viability ([15]; first compound 1 µM) was 0.547. It also gave a relative viability ([16]; first compound 0.01 µM) of 0.787, a relative viability ([16]; first compound 0.03162 µM) of 0.783 and a relative viability ([16]; first compound 0.1 µM) of 0.815. For the same compound, the relative viability ([16]; first compound 0.3162 µM) was 0.858, the relative viability ([16]; first compound 1 µM) was 0.928 and the relative viability ([17]; first compound 0.01 µM) was 0.127. For the same compound, the relative viability ([17]; first compound 0.03162 µM) was 0.15, the relative viability ([17]; first compound 0.1 µM) was 0.143 and the relative viability ([17]; first compound 0.3162 µM) was 0.139. It also gave a relative viability ([17]; first compound 1 µM) of 0.125, a relative viability ([18]; first compound 0.01 µM) of 0.545 and a relative viability ([18]; first compound 0.03162 µM) of 0.506. The relative viability ([18]; first compound 0.1 µM) was 0.489, the relative viability ([18]; first compound 0.3162 µM) was 0.529 and the relative viability ([18]; first compound 1 µM) was 0.408. For the same compound, the relative viability ([19]; first compound 0.01 µM) was 0.127, the relative viability ([19]; first compound 0.03162 µM) was 0.208 and the relative viability ([19]; first compound 0.1 µM) was 0.153. The relative viability ([19]; first compound 0.3162 µM) was 0.124, the relative viability ([19]; first compound 1 µM) was 0.062 and the relative viability ([20]; first compound 0.01 µM) was 0.469. The relative viability ([20]; first compound 0.03162 µM) was 0.515, the relative viability ([20]; first compound 0.1 µM) was 0.514 and the relative viability ([20]; first compound 0.3162 µM) was 0.435. It also gave a relative viability ([20]; first compound 1 µM) of 0.443, a relative viability ([21]; first compound 0.01 µM) of 0.491 and a relative viability ([21]; first compound 0.03162 µM) of 0.444. It also gave a relative viability ([21]; first compound 0.1 µM) of 0.434, a relative viability ([21]; first compound 0.3162 µM) of 0.409 and a relative viability ([21]; first compound 1 µM) of 0.333.
